Source: patent US10435447B2, “Bacteriocidal peptides and uses thereof” (priority 2015, dated 2019)
Converted amounts (≈) assume the structure as drawn. “Also recorded” adds a separate entry of the source. Like-named read-outs stand apart in the source and are kept apart here. Residues, ends and D or L forms follow the SMILES beside them. No end group written: not given here.

Assays:
[1] = system: 19 selected strains of Gram-negative bacteria; assay type: cell-based; settings: for antibacterial / bacteriocidal activity (in words): 19 Gram-negative strains; for number of the 19 Gram-negative strains inhibited: peptide at 16 μg/ml (~4 μM)
Text: FIG. 3. […] FIG. 3A. […] FIG. 3B. […] FIG. 3C. […] FIG. 3D. […] FIG. 3F.

[2] = system: human red blood cells (hRBCs); settings: human RBCs
[3] = system: Toll-like receptor 3 (TLR3); test: IL-6 ELISA, TLR3 signaling with poly(I:C) in BEAS-2B cells; assay type: cell-based, human
Procedure: Innate immune signaling by endogenous Toll-like receptor 3 (TLR3) in BEAS-2B cells in response to double-stranded RNA and various bacteriocidal peptides. IL-6 cytokine produced in response to signal transduction by TLR3 and the double-stranded RNA mimic, poly(I:C), was quantified using ELISA. Where present, the peptides were added to the media of BEAS-2B cells to a final concentration of 2 μM. […] All assays were performed in three independent samples and the mean and one standard error is shown above the bars.

Molecule | MIC (E. faecalis) [µg/mL] | MIC (S. aureus; S. aureus 25923) [µg/mL] | MIC (S. aureus; S. aureus 29213) [µg/mL] | RBC lysis (in words) [2] | enhancement of TLR3 signaling / IL-6 production (in words) [3] | further results
CC[C@H](C)[C@H](NC(=O)[C@@H](NC(=O)[C@@H]1CCCN1C(=O)[C@H](CO)NC(=O)[C@H](CC(C)C)NC(=O)[C@H](CCCCN)NC(=O)[C@H](CCCCN)NC(=O)[C@H](Cc1ccccc1)NC(=O)[C@H](CC(C)C)NC(=O)[C@H](CCCCN)NC(=O)[C@H](CCCCN)NC(=O)[C@H](Cc1ccccc1)NC(=O)[C@H](CCCCN)NC(=O)[C@H](CCCCN)NC(=O)[C@H](CCCNC(=N)N)NC(=O)[C@H](Cc1ccccc1)NC(=O)[C@H](CCCNC(=N)N)NC(=O)[C@H](CCCCN)NC(=O)[C@H](Cc1ccccc1)NC(=O)[C@H](CCCNC(=N)N)NC(=O)CN)C(C)C)C(=O)N1CCC[C@H]1C(=O)N[C@@H](CC(C)C)C(=O)N[C@@H](CC(C)C)C(=O)N[C@@H](Cc1c[nH]cn1)C(=O)N[C@@H](CC(C)C)C(=O)NCC(=O)O [BMAP-27] (H-GRFKRFRKKFKKLFKKLSPVIPLLHLG-OH; N-terminus and C-terminus assumed) | >32 |  |  |  |  | antibacterial / bacteriocidal activity (in words) [1]: most potent antibacterial activities; also recorded: most effective
CC[C@H](C)[C@H](NC(=O)[C@H](CCCCN)NC(=O)[C@H](CCCNC(=N)N)NC(=O)CNC(=O)[C@H](CC(C)C)NC(=O)[C@H](CCCCN)NC(=O)[C@H](CCC(N)=O)NC(=O)[C@@H](NC(=O)[C@H](CCCNC(=N)N)NC(=O)[C@H](CCCCN)NC(=O)[C@H](CCCNC(=N)N)NC(=O)[C@@H](NC(=O)[C@H](CCCCN)NC(=O)[C@H](CCCNC(=N)N)NC(=O)[C@H](Cc1ccccc1)NC(=O)[C@H](CCCCN)NC(=O)[C@H](CCCCN)NC(=O)[C@H](CCCNC(=N)N)NC(=O)[C@H](CC(C)C)NC(=O)CN)[C@@H](C)O)[C@@H](C)CC)C(=O)NCC(=O)N[C@@H](CCCCN)C(=O)N[C@H](C(=O)NCC(=O)N[C@@H](CCCNC(=N)N)C(=O)N[C@@H](CCCCN)C(=O)N[C@H](C(=O)N[C@@H](Cc1c[nH]c2ccccc12)C(=O)N[C@@H](CCCCN)C(=O)N[C@@H](C)C(=O)N[C@@H](Cc1c[nH]c2ccccc12)C(=O)N[C@@H](CCCNC(=N)N)C(=O)N[C@@H](CCC(=O)O)C(=O)N[C@@H](Cc1ccc(O)cc1)C(=O)O)C(C)C)[C@@H](C)O [CAP-11V1] (H-GLRKKFRKTRKRIQKLGRKIGKTGRKVWKAWREY-OH) | >32 | 32 (≈ 7.51 µM) | 32 (≈ 7.51 µM) | decreased RBC lysis; also recorded: did not result in increased lysis of human RBCs |  | 
CC[C@H](C)[C@H](NC(=O)[C@H](CCCCN)NC(=O)[C@H](CCC(=O)O)NC(=O)[C@H](CCCCN)NC(=O)[C@H](CO)NC(=O)[C@H](CCCCN)NC(=O)[C@H](CCCNC(=N)N)NC(=O)[C@H](Cc1ccccc1)NC(=O)[C@H](Cc1ccccc1)NC(=O)[C@H](C)NC(=O)CNC(=O)[C@H](CC(C)C)NC(=O)[C@@H](N)CC(C)C)C(=O)NCC(=O)N[C@@H](CCCCN)C(=O)N[C@@H](C)C(=O)N[C@@H](Cc1ccccc1)C(=O)N[C@@H](CCCCN)C(=O)N[C@@H](CCCNC(=N)N)C(=O)N[C@H](C(=O)N[C@H](C(=O)N[C@@H](CCC(N)=O)C(=O)N[C@@H](CCCNC(=N)N)C(=O)N[C@H](C(=O)N[C@@H](CCCCN)C(=O)N[C@@H](CC(=O)O)C(=O)N[C@@H](Cc1ccccc1)C(=O)N[C@@H](CC(C)C)C(=O)N[C@@H](CCCNC(=N)N)C(=O)O)[C@@H](C)CC)C(C)C)[C@@H](C)CC [LL-29V2] (H-LLGAFFRKSKEKIGKAFKRIVQRIKDFLR-OH) |  |  |  | slightly increased RBC lysis |  | 
CC[C@H](C)[C@H](NC(=O)[C@H](CCCCN)NC(=O)[C@H](C)NC(=O)[C@H](CCCCN)NC(=O)[C@H](CO)NC(=O)[C@H](CCCCN)NC(=O)[C@H](CCCNC(=N)N)NC(=O)[C@H](Cc1ccccc1)NC(=O)[C@H](Cc1ccccc1)NC(=O)[C@H](C)NC(=O)CNC(=O)[C@H](CC(C)C)NC(=O)[C@@H](N)CC(C)C)C(=O)NCC(=O)N[C@@H](CCCCN)C(=O)N[C@@H](C)C(=O)N[C@@H](Cc1ccccc1)C(=O)N[C@@H](CCCCN)C(=O)N[C@@H](CCCNC(=N)N)C(=O)N[C@H](C(=O)N[C@H](C(=O)N[C@@H](CCC(N)=O)C(=O)N[C@@H](CCCNC(=N)N)C(=O)N[C@H](C(=O)N[C@@H](CCCCN)C(=O)N[C@@H](C)C(=O)N[C@@H](Cc1ccccc1)C(=O)N[C@@H](CC(C)C)C(=O)N[C@@H](CCCNC(=N)N)C(=O)O)[C@@H](C)CC)C(C)C)[C@@H](C)CC [LL-29V] (H-LLGAFFRKSKAKIGKAFKRIVQRIKAFLR-OH) |  |  |  | comparable levels of RBC lysis as LL-29 |  | 
CC[C@H](C)[C@H](NC(=O)[C@H](CCCCN)NC(=O)[C@H](CCC(=O)O)NC(=O)[C@H](CCCCN)NC(=O)[C@H](CO)NC(=O)[C@H](CCCCN)NC(=O)[C@H](CCCNC(=N)N)NC(=O)[C@H](Cc1ccccc1)NC(=O)[C@H](Cc1ccccc1)NC(=O)[C@H](CC(=O)O)NC(=O)CNC(=O)[C@H](CC(C)C)NC(=O)[C@@H](N)CC(C)C)C(=O)NCC(=O)N[C@@H](CCCCN)C(=O)N[C@@H](CCC(=O)O)C(=O)N[C@@H](Cc1ccccc1)C(=O)N[C@@H](CCCCN)C(=O)N[C@@H](CCCNC(=N)N)C(=O)N[C@H](C(=O)N[C@H](C(=O)N[C@@H](CCC(N)=O)C(=O)N[C@@H](CCCNC(=N)N)C(=O)N[C@H](C(=O)N[C@@H](CCCCN)C(=O)N[C@@H](CC(=O)O)C(=O)N[C@@H](Cc1ccccc1)C(=O)N[C@@H](CC(C)C)C(=O)N[C@@H](CCCNC(=N)N)C(=O)O)[C@@H](C)CC)C(C)C)[C@@H](C)CC [LL-29] (H-LLGDFFRKSKEKIGKEFKRIVQRIKDFLR-OH) |  |  |  | reduced in RBC lysis; also recorded: did not result in increased lysis of human RBCs |  | 
CC[C@H](C)[C@H](NC(=O)[C@H](CCCCN)NC(=O)[C@H](CCC(=O)O)NC(=O)[C@H](CCCCN)NC(=O)[C@H](CO)NC(=O)[C@H](CCCCN)NC(=O)[C@H](CCCNC(=N)N)NC(=O)[C@H](Cc1ccccc1)NC(=O)[C@H](Cc1ccccc1)NC(=O)[C@H](CC(=O)O)NC(=O)CNC(=O)[C@H](CC(C)C)NC(=O)[C@@H](N)CC(C)C)C(=O)NCC(=O)N[C@@H](CCCCN)C(=O)N[C@@H](CCC(=O)O)C(=O)N[C@@H](Cc1ccccc1)C(=O)N[C@@H](CCCCN)C(=O)N[C@@H](CCCNC(=N)N)C(=O)N[C@H](C(=O)N[C@H](C(=O)N[C@@H](CCC(N)=O)C(=O)N[C@@H](CCCNC(=N)N)C(=O)N[C@H](C(=O)N[C@@H](CCCCN)C(=O)N[C@@H](CC(=O)O)C(=O)N[C@@H](Cc1ccccc1)C(=O)N[C@@H](CC(C)C)C(=O)N[C@@H](CCCNC(=N)N)C(=O)N[C@@H](CC(N)=O)C(=O)N[C@@H](CC(C)C)C(=O)N[C@H](C(=O)N1CCC[C@H]1C(=O)N[C@@H](CCCNC(=N)N)C(=O)N[C@H](C(=O)N[C@@H](CCC(=O)O)C(=O)N[C@@H](CO)C(=O)O)[C@@H](C)O)C(C)C)[C@@H](C)CC)C(C)C)[C@@H](C)CC [LL-37] |  |  |  | RBC lysis in a concentration-dependent manner |  | 
BMAP-34: SEQ ID NO: 7, cow cathelicidin, GLFRRLRDSIRRGQQKILEKARRIGERIKDIFRG (listed as Bos taurus) |  |  |  |  | more similar to CRAMP | 
GLRKKFRETRKEIQKLGEKIGKTGRKVWKDWREYGQIPYPCRI [CAP-11V3] | >32 | >32 | >32 |  |  | 
GLRKKFRETRKEIQKLGRKIGKTGRKVWKAWREYGQIPYPCRI [CAP-11V2] | >32 | >32 | >32 |  |  | 
GLRKKFRKTRKRIQKLGRKIGKTGRKVWKAWREYGQIPYPCRI [CAP-11] | >32 | 32 | 32 |  | retained reduced levels of activation of TLR3 in comparison to LL-37; also recorded: retain partial enhancement of TLR3 signaling | antibacterial / bacteriocidal activity (in words) [1]: most potent antibacterial activities; also recorded: most effective; number of the 19 Gram-negative strains inhibited [1]: 16 strains
PMAP-37: SEQ ID NO: 8, pig cathelicidin, GLLSRLRDFLSDRGRRLGEKIERIGQKIKDLSEFFQS (listed as Sus scrofa) |  |  |  |  | more similar to CRAMP | 
RL-37: SEQ ID NO: 2, Rhesus monkey cathelicidin, RLGNFFRKVKEKIGGGLKKVGQKIKDFLGNLVPRTAS (listed as Macaca mulatta) |  |  |  |  | retain partial enhancement of TLR3 signaling | 
eCATH-3: SEQ ID NO: 9, horse cathelicidin, KRFHSVGSLIQRHQQMIRDKSEATRHGIRIITRPKLLLAS (listed as Equus caballus) |  |  |  |  | more similar to CRAMP | antibacterial / bacteriocidal activity (in words) [1]: least effective; number of the 19 Gram-negative strains inhibited [1]: did not inhibit the growth of any
